{"source": "patent US8022104B2", "about": "(priority 2005, dated 2011)", "key": {"[1]": {"test": "Wet granulation experiments: compatibility with water and ethanol", "type": "physicochemical", "experimental": "The manufacturing process was changed from the dry granulation process to a wet-granulation process as a result of the flow problem with the active ingredient. Water and ethanol are the two most common agents used in wet granulation. Granulation experiments were first performed with water. […] Therefore, granulation experiments based on the CC formulation were performed with isopropanol."}, "Cholinesterase": {"tested_on": "Cholinesterase", "test": "Cholinesterase inhibition at pre-dose in patients", "type": "in vivo, human", "settings": "pre-dose administration, at maintenance and at termination analyses", "from_the_text": "Cholinesterase inhibition at pre-dose administration both at maintenance and at termination analyses was also evident."}, "[2]": {"tested_on": "3,4-dihydroxyphenylglycol (DHPG) in plasma", "test": "Decrease of DHPG plasma concentration in patients, HPLC with electrochemical detector", "type": "in vivo, human", "experimental": "Decrease of 3,4-dihydroxyphenylglycol (“DHPG”) in plasma is indicative of monoamine oxidase inhibition, especially in the brain. DHPG plasma concentrations were measured in 6 of the aforementioned patients at baseline and at termination analysis, using HPLC equipped with an electrochemical detector.\nThe decrease in DHPG concentration in the six patients was determined. The average decrease in DHPG concentration was determined to be 57% with a standard deviation of 29."}, "[3]": {"test": "Pharmacokinetic analysis in Alzheimer's disease patients", "type": "in vivo, human", "experimental": "Pharmacokinetic analysis was performed on Week 4 (maintenance analysis) and on Week 9 (termination analysis). At maintenance analysis (M), samples were collected pre-dose and at 0.25, 0.5, 1, 2, and 3 hours post-dose. At termination analysis (T), samples were collected pre-dose and at 0.25, 0.5, 1, 2, 3, 4, 6, and […].\nThe concentration measurements are expressed in nmol/ml and the t1/2 is expressed in terms of hours."}, "[4]": {"test": "Bulk and tapped density of ladostigil tartrate crystals", "type": "physicochemical", "settings": "crystals from the alternative isopropanol process", "from_the_text": "This alternative process, which can be performed without the seeding step, is better suited for use in a pilot scale and a production scale than a method that follows PCT Application Publication No. WO98/27055."}}, "note": "“And” between values parts separate entries of the source, which are not always exact repeats. Identical values can stand only once. Like-named read-outs stand apart in the source and are kept apart here."}
{"substance": "R(+)-6-(N-methyl, N-ethyl-carbamoyloxy)-N′-propargyl-1-aminoindan [Ladostigil Tartrate]", "values": [{"measurement": "Compatibility with ethanol", "setting": "[1]; wet granulation agent", "result": "incompatible with ethanol"}, {"measurement": "Stability in the presence of water", "setting": "[1]; wet granulation with water", "result": "unstable in the presence of water"}, {"measurement": "Cholinesterase inhibition", "setting": "Cholinesterase", "result": "evident"}, {"measurement": "DHPG (T) (%)", "setting": "[2]; individual patients, termination analysis Week 9 versus baseline", "result": "−63% and −86% and >−79% and −73% and −30% and −13%"}, {"measurement": "average decrease in DHPG concentration", "setting": "[2]; six patients, termination analysis, standard deviation of 29", "result": 57, "unit": "%"}, {"measurement": "t1/2", "setting": "[3]; half life at termination analysis Week 9", "result": 1.08, "unit": "h"}, {"measurement": "AUC ladostigil (M)", "setting": "[3]; individual patients 1-8, maintenance analysis Week 4, 100 mg twice daily, tablets of Table 9", "result": "314 ng·h/mL and 589 ng·h/mL and 1005 ng·h/mL and 927 ng·h/mL and 436 ng·h/mL and 551 ng·h/mL and 52 ng·h/mL and 500 ng·h/mL"}, {"measurement": "AUC ladostigil (T)", "setting": "[3]; individual patients 1-8, termination analysis Week 9, 100 mg twice daily, tablets of Table 9", "result": "246 ng·h/mL and 2305 ng·h/mL and 1449 ng·h/mL and 482 ng·h/mL and 398 ng·h/mL and 901 ng·h/mL and 118 ng·h/mL and 350 ng·h/mL"}, {"measurement": "Cmax", "setting": "[3]; individual patients 1-8, termination analysis Week 9, 100 mg twice daily, read-out: Cmax ladostigil (T)", "result": "700 nM and 3800 nM and 3900 nM and 1600 nM and 1000 nM and 2500 nM and 400 nM and 1300 nM"}, {"measurement": "Cmax", "setting": "[3]; mean after dosing, maintenance analysis Week 4, read-out: Cmax", "result": 2020, "unit": "nM"}, {"measurement": "Cmax", "setting": "[3]; mean after dosing, termination analysis Week 9, read-out: Cmax (T)", "result": 1880, "unit": "nM"}, {"measurement": "Cmin (M)", "setting": "[3]; mean concentration at pre-dose (12 hours after previous dose), maintenance analysis Week 4", "result": "1.64e-08", "unit": "M"}, {"measurement": "Cmin (T)", "setting": "[3]; mean concentration at pre-dose (12 hours after previous dose), termination analysis Week 9", "result": 0.0109, "unit": "nmol/mL"}, {"measurement": "bulk density", "setting": "[4]", "result": "0.22 to 0.29", "unit": "g/mL"}, {"measurement": "tapped density", "setting": "[4]", "result": "0.38 to 0.54", "unit": "g/mL"}]}
